In patent publication US6531117B2, “Aqueous dispersion of water-insoluble organic UV filter substances” (BASF Aktiengesellschaft, priority 2000, dated 2003):

Assay: UV absorption (absorbance coefficient)
Type: physicochemical
Conditions: 314 nm
Source text: Uvinul® T150 is notable for good UV absorption properties and an extremely high absorbance coefficient of >1500 and 314 nm.

absorbance coefficient: > 1500
Compound: CCCCC(CC)COC(=O)c1ccc(Nc2nc(Nc3ccc(C(=O)OCC(CC)CCCC)cc3)nc(Nc3ccc(C(=O)OCC(CC)CCCC)cc3)n2)cc1 (stereo not shown) [Uvinul® T150, 2,4,6-trianilino-p-(carbo-2′-ethylhexyl-1′-oxy)-1,3,5-triazine]
